Assays:
HEK293 cells [1] = experiment: Cellular uptake of peptide/Cy5-pDNA complexes by flow cytometry; format: cell-based; settings: peptide/Cy5-pDNA complex at N/P = 8, HEK293 cells, flow cytometry 488 nm excitation, n = 4 (Figure S1)
Experimental: (§1) The intracellular uptake of Cy5-labeled pDNA complexed with peptides F-1–F-4 was evaluated in […] cells. The fluorescence intensity of Cy5 incorporated into […] was quantified using flow cytometry at 24 h after administration (Figure 5). […] The stability of the peptide/pDNA complex was then evaluated by adding the negatively charged competitive inhibitor, dextran sulfate.
Figure 5 Cellular uptake of peptide/Cy5-pDNA complexes at N/P = 8 in HEK293 cells. The cellular uptake ability was determined by flow cytometry. The cells were excited with a 635 nm light for detecting Cy5-pDNA. Error bars represent the mean ± standard deviation, n = 4.
Each 1 mM peptide solution in DMSO and pDNA was dissolved separately in 10 mM Hepes buffer (pH 7.3). To form peptide/pDNA complexes, peptide solutions of various concentrations were added to the pDNA solution in 2-fold excess. The final pDNA concentration was adjusted to 33.3 mg/mL. After the complex solutions were stored at room temperature for 15 min, the complex solutions were added. […]
HEK293 cells were seeded on 24-well culture plates (100,000 cells/well) and incubated overnight in 500 μL of DMEM. […] The cell pellets obtained were suspended in PBS and the cells were analyzed by a BD accuri C6 Plus flow cytometer (BD Bioscience, New Jersey).
Figure S1. […] Cellular uptake ability was determined by flow cytometry. […]

[2] = CD spectroscopy, secondary structure (R value); format: physicochemical; settings: 10% acetonitrile in 20 mM phosphate buffer pH 7.4, peptide 50 µM, ratio of CD signal intensities at 222 and 208 nm
Experimental: CD measurements were performed to analyze the preferred secondary structures of the synthesized peptides F-1–F-4 (10% acetonitrile in 20 mM phosphate buffer, pH 7.4) (Figure 2). […] These characteristic Cotton effects indicated the presence of a helical structure in F-1. […] To further evaluate the dominant secondary structures of the peptides, a parameter called the R value (θ222/θ208) was calculated. The R value represents the ratio of the CD signal intensities at 222 nm and 208 nm, respectively. For the peptides F-1, F-2, F-3, and F-4, the R values were determined to be 0.72, 1.83, 0.95, and 1.58, respectively. Based on previous studies, these R values indicate that the dominant secondary structures of all the peptides were α-helices.
CD spectra were recorded with a JASCO J-1100 CD spectrometer using a 1.0 mm path length cell. The data are expressed in terms of [θ]; i.e., total molar ellipticity (deg cm^2 dmol^−1). Peptides were dissolved in 10% MeCN in 20 mM phosphate buffer solution at 50 µM concentrations. Each parameter was: wavelength: 190–260 nm; bandwidth: 1 nm; response: 1 s; speed: 50 nm min^−1; accumulations: 3 times; and path length: […].

pDNA = experiment: Displacement assay with dextran sulfate (gel retardation); format: physicochemical; settings: N/P = 8, 100 ng pDNA, 30 min at 37 °C, agarose gel
Experimental: as §1
Complex with 100 ng of pDNA and peptide at N/P ratio = 8 were incubated for 30 min at 37 °C in the presence of dextran sulfate (sodium salt, Wako, Japan) at various concentrations ranging 0, 0.05, 0.1, 0.5, and 1 mg/mL. After the incubation, the samples were analyzed on agarose gel and the gel was stained with SYBR Gold (Thermo Fisher Scientific, Waltham, MA, USA).
Figure S1. Cellular uptake of peptide/Cy5-pDNA complexes at N/P = 8 with HEK293 cells. Cellular uptake ability was determined by flow cytometry. The cells were excited with a 488 nm light from an LD laser for detecting FAM-p eptide. Error bars represent the mean±standard deviation, n = 4.
Dextran sulfate Dextran sulfate Dextran sulfate Dextran sulfate […]
Figure S2. Physicochemical characterization of peptide/pDNA complexes at N/P = 8 with dextran sulfate. Gel retardation assay for evaluation of the stability and the dissociation of the peptide/pDNA complexes upon treatment with dextran sulfate at different concentrations ranging from 0 to 1 mg/mL. […]

[3] = Zeta-potential measurement of peptide/pDNA complexes; format: physicochemical; settings: peptide/pDNA complex, laser-Doppler electrophoresis, 10 mM Hepes pH 7.3, 25 °C, mean ± SD of 3 measurements
Experimental: (§2) The ability of peptides F-1–F-4 to deliver pDNA was evaluated using complexes between the peptides and pDNA in 10 mM Hepes buffer (pH 7.3). The zeta potentials and sizes of the peptide/pDNA complexes prepared at various charge ratios were determined (Table 2). The size of the F-1 peptide/pDNA complexes at a charge ratio of 2 was 3364 nm, and the sizes decreased with an increase in the charge ratios (Table 2). The sizes of the peptide/pDNA complexes were in the order of several hundred nm, which is considered to be a useful size for the delivery of pDNA, except for the complex with F-1 at N/P = 2, which was defined as the residual molar ratio of the amino groups in polycations of peptides (N) to the phosphate groups in pDNA (P). […] Thus, we examined the complexes of F-1–F-4 at N/P = 8 to evaluate the effect of the stapling of TP10 on the ability to deliver pDNA.
(§3) Each 1 mM peptide solution in DMSO and pDNA was dissolved separately in 10 mM Hepes buffer (pH 7.3). To form peptide/pDNA complexes, peptide solutions of various concentrations were added to the pDNA solution in 2-fold excess. The final pDNA concentration was adjusted to […]. After the complex solutions were stored at room temperature for 15 min, the complex solutions were added. The charge ratio was defined as the residual molar ratio of the amino group of amino acid in the peptide to the phosphate group in the pDNA.
(§4) The zeta-potentials of the peptide/pDNA complexes in 10 mM Hepes buffer (pH 7.3) were evaluated by the laser-Doppler electrophoresis method using Nano ZS (ZEN3600, Malvern Instruments, Ltd., Malvern, UK) with a He–Ne ion laser (633 nm). Light scattering data were obtained at a detection angle of 173° and temperature of 25 °C, and were subsequently analyzed by the cumulant method to obtain the hydrodynamic diameters, polydispersity indices (PDI) (m/G^2) and zeta-potential of the complexes. Results were presented as the mean and standard deviation of 3 measurements (Table 2).

[4] = DLS measurement of peptide/pDNA complexes (size, PDI); format: physicochemical; settings: peptide/pDNA complex, mean ± SD of 3 measurements; for Size: cumulant method
Experimental: as §2, §3, §4

HEK293 cells [5] = experiment: Cellular-uptake mechanism: endocytosis inhibitors and 4 °C; format: cell-based; settings: peptide 5 µM, flow cytometry
Description: To inhibit specific endocytic pathways, three different inhibitors were used: amiloride, nystatin, and sucrose. Each inhibitor targets a distinct endocytic pathway: amiloride inhibits […] (a form of endocytosis where cells engulf fluid and solutes); nystatin inhibits caveolae-mediated endocytosis (a process involving small invaginations in the cell membrane called caveolae); and sucrose inhibits clathrin-mediated endocytosis (a mechanism in which the protein clathrin forms coated pits on the cell surface to internalize molecules). As a control, a peptide called nona-arginine (R9) with CF […] was used. This peptide is known to enter cells via endocytosis. The uptake of CF-R9 with that of the parent peptide F-1 and the stapled peptide F-3 was compared.
HEK293 cells were seeded in 24-well plates at a density of 200,000 cells/well and cultured in DMEM for 23 h. After the medium had been replaced with fresh medium containing 10% FBS in the absence or presence of amiloride (5 mM), sucrose (0.4 M), or nystatin (25 μg/mL), the cells were pre-incubated at 37 °C for 30 min. Then, the cells were treated with the relevant peptide (peptide concentration; 5 µM) and incubated for 30 min at 37 °C. […] Then, the cells were analyzed by a BD accuri C6 Plus flow cytometer (BD Bioscience, New Jersey). […]

[6] = N/P ratio 2, 10 mM Hepes pH 7.3, 25 °C
[7] = N/P ratio 4, 10 mM Hepes pH 7.3, 25 °C
[8] = N/P ratio 8, 10 mM Hepes pH 7.3, 25 °C

CF-XAGYLLGKINLKALAAS5*AKKS5*L (sidechain bridge or staple) [F-3, C-terminal stapled TP10 analog, Leu and Ile replaced with S5 residues, CF-labelled]
fluorescence from peptide detected by CF after adding peptide/Cy5-pDNA complex (HEK293 cells [1]): strongest fluorescence | R value (θ222/θ208) [2]: 0.95 | concentration of dextran sulfate at which the peptide/pDNA complex dissociated (pDNA; dextran sulfate 0, 0.05, 0.1, 0.5, 1 mg/mL, SYBR Gold (Figure S2)): 0.5 mg/mL | stability of the peptide/pDNA complex against dextran sulfate (pDNA; dextran sulfate 0-1 mg/mL): less stable than the other complexes | Zeta-Potential ([3]; N/P ratio 2): 22.9 ± 1.1 mV | Zeta-Potential ([3]; N/P ratio 4): 18.0 ± 1.7 mV | Zeta-Potential ([3]; N/P ratio 8): 20.6 ± 3.0 mV | Size [4, 6]: 391 ± 8 nm | PDI [4, 6]: 0.417 ± 0.049 | Size [4, 7]: 352 ± 57 nm | PDI [4, 7]: 0.366 ± 0.054 | Size [4, 8]: 324 ± 53 nm | PDI [4, 8]: 0.399 ± 0.083 | cellular uptake when incubated at 4 °C (HEK293 cells [5]; 30 min at 4 °C compared with 37 °C): significantly inhibited | cellular uptake when treated with endocytosis inhibitors (HEK293 cells [5]; 30 min at 37 °C after 30 min pre-incubation with amiloride (5 mM), sucrose (0.4 M) or nystatin (25 μg/mL), n=3): significantly inhibited
